Results published in EP0908457B1, “3-(1,2-benzisothiazol- and isoxazol-5-Y1)-2,4(1H,3H)-pyrimidinedione or thione and 3-(1,2-benzisothiazol- and isoxazol-5-y1)-4(3H)-pyrimidinone or thione herbicidal agents” (BASF AKTIENGESELLSCHAFT, priority 1997, dated 1999).

Experiments:
[1] = system: Echinochloa oryzoides (Ard.) Fritsch.; assay: Preemergence weed control under flooded paddy conditions, ECHORC (Watergrass (Calif.)); assay type: in vivo; settings: preemergence weeds, flooded paddy, herbicidal effect rating 0-9, three to four weeks after treatment
Cyperus iria [2] = assay: Preemergence weed control under flooded paddy conditions, CYPIR (Rice Flatsedge); assay type: in vivo; settings: preemergence weeds, flooded paddy, herbicidal effect rating 0-9, three to four weeks after treatment
[3] = system: Cyperus serotinus, Rottb.; assay: Preemergence weed control under flooded paddy conditions, CYPSE (Flatsedge); assay type: in vivo; settings: preemergence weeds, herbicidal effect rating 0-9, three to four weeks after treatment
[4] = system: Monochoria vaginalis, Presl.; assay: Preemergence weed control under flooded paddy conditions, MOOVA (Monochoria); assay type: in vivo; settings: preemergence weeds, flooded paddy, herbicidal effect rating 0-9, three to four weeks after treatment
Sagittaria pygmaea, L. [5] = assay: Preemergence weed control under flooded paddy conditions, SAGPY (Arrowhead (Pygmaea)); assay type: in vivo; settings: preemergence weeds, flooded paddy, herbicidal effect rating 0-9, three to four weeks after treatment
[6] = system: Echinochloa oryzoides (Ard.) Fritsch.; assay: Postemergence weed control under flooded paddy conditions, ECHORC (Watergrass (Calif.)); assay type: in vivo; settings: rated three to four weeks after treatment
Cyperus iria [7] = assay: Postemergence weed control under flooded paddy conditions, CYPIR (Rice Flatsedge); assay type: in vivo; settings: rated three to four weeks after treatment
[8] = system: Cyperus serotinus, Rottb.; assay: Postemergence weed control under flooded paddy conditions, CYPSE (Flatsedge); assay type: in vivo; settings: rated three to four weeks after treatment
[9] = system: Monochoria vaginalis, Presl.; assay: Postemergence weed control under flooded paddy conditions, MOOVA (Monochoria); assay type: in vivo; settings: rated three to four weeks after treatment
Sagittaria pygmaea, L. [10] = assay: Postemergence weed control under flooded paddy conditions, SAGPY (Arrowhead (Pygmaea)); assay type: in vivo; settings: rated three to four weeks after treatment
[11] = system: Oryza sativa, (L.) Tebonnet; assay: Rice tolerance to post-transplant applications under flooded paddy conditions (Example 187), ORYSAT (Rice, Tebonnet); settings: herbicidal effect rating 0-9, three to four weeks after treatment
[12] = system: Oryza sativa, (L.) Tebonnet; assay: Rice tolerance to post-transplant applications under flooded paddy conditions (Example 188), ORYSAT (Rice, Tebonnet); settings: rated three to four weeks after treatment

CCC(C#N)(CC)c1nsc2ccc(-n3c(=O)cc(C(F)(F)F)n(C)c3=O)cc12 [Example 445, 1,2-Benzisothiazole-3-acetonitrile, 5-[3,6-dihydro-3-methyl-2,6-dioxo-4-(trifluoromethyl)-1(2H)-pyrimidinyl]-alpha,alpha-diethyl-]
ECHORC ([1]; 0.0320 kg/ha): 8.5
ECHORC ([1]; 0.0620 kg/ha): 8.5
ECHORC ([1]; 0.1250 kg/ha): 9.0
ECHORC ([1]; 0.2500 kg/ha): 9.0
CYPIR (Cyperus iria [2]; 0.0320 kg/ha): 6.5
CYPIR (Cyperus iria [2]; 0.0620 kg/ha): 8.0
CYPIR (Cyperus iria [2]; 0.1250 kg/ha): 9.0
CYPIR (Cyperus iria [2]; 0.2500 kg/ha): 9.0
CYPSE ([3]; 0.0320 kg/ha): 7.5
CYPSE ([3]; 0.0620 kg/ha): 8.5
CYPSE ([3]; 0.1250 kg/ha): 8.0
CYPSE ([3]; 0.2500 kg/ha): 8.5
MOOVA ([4]; 0.0320 kg/ha): 9.0
MOOVA ([4]; 0.0620 kg/ha): 9.0
MOOVA ([4]; 0.1250 kg/ha): 9.0
MOOVA ([4]; 0.2500 kg/ha): 9.0
SAGPY (Sagittaria pygmaea, L. [5]; 0.0320 kg/ha): 4.5
SAGPY (Sagittaria pygmaea, L. [5]; 0.0620 kg/ha): 8.0
SAGPY (Sagittaria pygmaea, L. [5]; 0.1250 kg/ha): 8.5
SAGPY (Sagittaria pygmaea, L. [5]; 0.2500 kg/ha): 9.0
herbicidal effect rating, ECHORC ([6]; Rate 0.0320 kg/ha): 4.0
herbicidal effect rating, ECHORC ([6]; Rate 0.0620 kg/ha): 7.0
herbicidal effect rating, ECHORC ([6]; Rate 0.1250 kg/ha): 9.0
herbicidal effect rating, ECHORC ([6]; Rate 0.2500 kg/ha): 9.0
herbicidal effect rating, CYPIR (Cyperus iria [7]; Rate 0.0320 kg/ha): 4.0
herbicidal effect rating, CYPIR (Cyperus iria [7]; Rate 0.0620 kg/ha): 7.0
herbicidal effect rating, CYPIR (Cyperus iria [7]; Rate 0.1250 kg/ha): 9.0
herbicidal effect rating, CYPIR (Cyperus iria [7]; Rate 0.2500 kg/ha): 9.0
herbicidal effect rating, CYPSE ([8]; Rate 0.0320 kg/ha): 0.0
herbicidal effect rating, CYPSE ([8]; Rate 0.0620 kg/ha): 2.0
herbicidal effect rating, CYPSE ([8]; Rate 0.1250 kg/ha): 4.0
herbicidal effect rating, CYPSE ([8]; Rate 0.2500 kg/ha): 4.0
herbicidal effect rating, MOOVA ([9]; Rate 0.0320 kg/ha): 0.0
herbicidal effect rating, MOOVA ([9]; Rate 0.0620 kg/ha): 0.0
herbicidal effect rating, MOOVA ([9]; Rate 0.1250 kg/ha): 2.0
herbicidal effect rating, MOOVA ([9]; Rate 0.2500 kg/ha): 9.0
herbicidal effect rating, SAGPY (Sagittaria pygmaea, L. [10]; Rate 0.0320 kg/ha): 0.0
herbicidal effect rating, SAGPY (Sagittaria pygmaea, L. [10]; Rate 0.0620 kg/ha): 0.0
herbicidal effect rating, SAGPY (Sagittaria pygmaea, L. [10]; Rate 0.1250 kg/ha): 4.0
herbicidal effect rating, SAGPY (Sagittaria pygmaea, L. [10]; Rate 0.2500 kg/ha): 9.0
ORYSAT ([11]; 0.0320 kg/ha): 5.0
ORYSAT ([11]; 0.0620 kg/ha): 6.5
ORYSAT ([11]; 0.1250 kg/ha): 7.0
ORYSAT ([11]; 0.2500 kg/ha): 8.0
herbicidal effect rating, ORYSAT (rice tolerance) ([12]; Rate 0.0320 kg/ha): 3.0
herbicidal effect rating, ORYSAT (rice tolerance) ([12]; Rate 0.0620 kg/ha): 6.0
herbicidal effect rating, ORYSAT (rice tolerance) ([12]; Rate 0.1250 kg/ha): 7.0
herbicidal effect rating, ORYSAT (rice tolerance) ([12]; Rate 0.2500 kg/ha): 7.0
